According to patent publication US6262054A (priority 1996, dated 2001):
Entries after “also recorded” stand apart in the source; their conditions may differ. Read-outs that look alike come from different tables or passages of the source.

Experiments:
[1] = tested on: dihydrofolate reductase; conditions: cited from earlier work
[2] = cited from earlier work
[3] = tested on: smallcell lung cancer; conditions: single agent; cited from earlier work
[4] = tested on: metastatic colorectal carcinoma; conditions: single agent; cited from earlier work
[5] = tested on: sensitive tumor cells; conditions: cited from earlier work
[6] = tested on: breast cancer; conditions: cited from earlier work; for curative effect of the single agent: alone, metastatic breast cancer patients; for antitumor activity: single agent
[7] = tested on: non-Hodgkin's lymphoma; conditions: single agent; cited from earlier work
[8] = tested on: head and neck carcinoma; conditions: single agent; cited from earlier work
[9] = tested on: a number of tumors; conditions: preclinical tests; cited from earlier work
[10] = tested on: non-small cell lung cancer; conditions: single agent; cited from earlier work
[11] = tested on: P388 Murine Tumor; experiment: in vivo; conditions: for Increased Life-Span / Long-term Survivors / Median Survival Time (± SEM): at maximum tolerated dose, q4d × 3 ip
Source text: (§1) Combination treatment in mice. The P388 lymphoidal tumor was transplanted intraperitoneally (10^6 cells/mouse) into […] mice. The animals were randomized into control and treated groups after tumor implant. […] Therapy was repeated three times at four day intervals between each treatment.

[12] = in vivo; conditions: mouse, in vivo, ip
Source text: as §1

[13] = tested on: refractory ovarian cancer; conditions: in vivo; cited from earlier work
[14] = tested on: microtubules; conditions: cited from earlier work

CCC(Cc1cnc2nc(N)nc(N)c2n1)c1ccc(C(=O)N[C@@H](CCC(=O)O)C(=O)O)cc1 (some centres unmarked) [EDX, 10-ethyl-10-deaza-aminopterin]
inhibition of dihydrofolate reductase ([1]; listed as Edatrexate): inhibits dihydrofolate reductase | inhibition of dihydrofolate reductase ([1]; listed as edatrexate): inhibitor of dihydrofolate reductase | dosage limit due to side effects ([2]; given occasionally): up to 120 mg/m^2 /week | primary toxic effect ([2]; single agent): mucositis | dosage limit due to side effects ([2]; usual): 80 mg/m^2 body surface area/week | anti-tumor activity [3]: No anti-tumor activity was observed | anti-tumor activity [4]: No anti-tumor activity was observed | accumulation / retention in tumor cells compared with methotrexate [5]: accumulated in sensitive tumor cells to a greater extent than its predecessor methotrexate and was more selectively retained by the tumor cells | curative effect of the single agent [6]: neither edatrexate nor paclitaxel alone is curative for most metastatic breast cancer patients | antitumor activity [6]: Antitumor activity of edatrexate has also been observed | antitumor activity [7]: Antitumor activity of edatrexate has also been observed | antitumor activity [8]: Antitumor activity of edatrexate has also been observed | antitumor activity compared with methotrexate [9]: greater antitumor activity than methotrexate against a number of tumors | response rates [10]: ~30% | Therapeutic activity (in words) ([11]; P388 in mice, maximum tolerated dose): more effective than MTX | Increased Life-Span [11]: +338% | Long-term Survivors [11]: 1/5 | Median Survival Time (± SEM) [11]: 35 ± 4 days | MTD [12]: 100 mg/kg

CC(=O)O[C@H]1C(=O)[C@@]2(C)[C@H]([C@H](OC(=O)c3ccccc3)[C@]3(O)C[C@H](OC(=O)[C@H](O)[C@@H](NC(=O)c4ccccc4)c4ccccc4)C(C)=C1C3(C)C)[C@]1(OC(C)=O)CO[C@@H]1C[C@@H]2O [TXL, paclitaxel]
primary dose limiting toxic effect ([2]; single agent): myelosuppression | curative effect of the single agent [6]: neither edatrexate nor paclitaxel alone is curative for most metastatic breast cancer patients | antitumor activity [6]: anti-tumor properties in some breast cancer patients | activity [13]: activity against refractory ovarian cancer | Increased Life-Span [11]: +100% | Long-term Survivors [11]: 0/5 | Median Survival Time (± SEM) [11]: 16 ± 2 days | MTD [12]: 18 mg/kg | effect on microtubule assembly and stability [14]: promotes the assembly of microtubules from tubulin dimers and stabilizes microtubules by preventing depolymerization

CN(Cc1cnc2nc(N)nc(N)c2n1)c1ccc(C(=O)N[C@@H](CCC(=O)O)C(=O)O)cc1 [MTX, methotrexate]
inhibition of dihydrofolate reductase [1]: inhibitor of dihydrofolate reductase; also recorded: inhibits dihydrofolate reductase | Long-term Survivors [11]: 0/5 | Median Survival Time (± SEM) [11]: 27 ± 3 days | MTD [12]: 55 mg/kg
